Read-outs that look alike come from different tables or passages of the source.
Experiment: BI 187004 concentration in subcutaneous adipose tissue biopsies (LC–MS/MS)
Assay type: in vivo, human
Settings: for Kp at 10 h / Kp at 24 h / concentration at 10 h / concentration at 24 h: male, human, oral; for Kp at 10 h: read-out: AT:plasma ratio (range) 10 h; for Kp at 24 h: read-out: AT:plasma ratio (range) 24 h; for concentration at 10 h: read-out: AT C10 gMean (range); for concentration at 24 h: read-out: AT C24 gMean (range)
Experimental: The assay was qualified for the BI 187004 concentration range of 2.5—10,000 ng/g. The BI 187004 AT concentration data for study samples were generated from seven analytical runs. For each run, the acceptance criteria for the calibration standards and QC samples were met. Acceptance criteria for all sample analysis runs were ≤ 25% RSD (relative standard deviation / precision) and ± 25% RE (relative error / accuracy) for calibration standards and quality control samples.

Compound: N#Cc1ccc2c(c1)[C@H]1CCCN(C(=O)c3ccc4[nH]cnc4c3)[C@H]1C2 [BI 187004]
- AT:plasma ratio (range) 24 h (10 mg single dose, 24 h, only range printed): – (9.58 – 20.1)
- AT C24 gMean (range) (10 mg single dose, adipose tissue, 24 h, only range printed): – (9.91 – 22.6) nmol/L
- Plasma concentration compared with AT concentration (times higher) (24 h post dosing): approximately 10
- Ratio ATC24/PlasmaC24, range across dose groups (24 h post dosing): 8.58—11.4
- Kp at 10 h (subcutaneous adipose tissue / plasma, 40 mg single dose): 10.1
- Kp at 24 h (subcutaneous adipose tissue / plasma, 40 mg single dose, 24 h): 8.58
- Kp at 10 h (subcutaneous adipose tissue / plasma, 80 mg single dose): 8.36
- Kp at 24 h (subcutaneous adipose tissue / plasma, 80 mg single dose, 24 h): 9.62
- Kp at 10 h (subcutaneous adipose tissue / plasma, 160 mg single dose): 13.7
- Kp at 24 h (subcutaneous adipose tissue / plasma, 160 mg single dose, 24 h): 10.3
- Kp at 24 h (subcutaneous adipose tissue / plasma, 240 mg single dose, 24 h): 9.96
- Kp at 10 h (subcutaneous adipose tissue / plasma, 360 mg single dose): 16.2
- Kp at 24 h (subcutaneous adipose tissue / plasma, 360 mg single dose, 24 h): 11.4
- Kp at 10 h (subcutaneous adipose tissue and plasma, 240 mg single dose): 25.1
- Kp at 10 h (subcutaneous adipose tissue, 10 mg single dose): 10.3
- concentration at 10 h (subcutaneous adipose tissue, 10 mg single dose, adipose tissue): 17.9 nM
- Kp at 10 h (subcutaneous adipose tissue, 20 mg single dose): 9.97
- Kp at 24 h (subcutaneous adipose tissue, 20 mg single dose, 24 h): 10.8
- concentration at 10 h (subcutaneous adipose tissue, 20 mg single dose, adipose tissue): 38.1 nM
- concentration at 24 h (subcutaneous adipose tissue, 20 mg single dose, adipose tissue, 24 h): 17.5 nM
- concentration at 10 h (subcutaneous adipose tissue, 40 mg single dose, adipose tissue): 80.3 nM
- concentration at 24 h (subcutaneous adipose tissue, 40 mg single dose, adipose tissue, 24 h): 27.5 nM
- concentration at 10 h (subcutaneous adipose tissue, 80 mg single dose, adipose tissue): 128 nM
- concentration at 24 h (subcutaneous adipose tissue, 80 mg single dose, adipose tissue, 24 h): 84.5 nM
- concentration at 10 h (subcutaneous adipose tissue, 160 mg single dose, adipose tissue): 412 nM
- concentration at 24 h (subcutaneous adipose tissue, 160 mg single dose, adipose tissue, 24 h): 168 nM
- concentration at 10 h (subcutaneous adipose tissue, 240 mg single dose, adipose tissue): 653 nM
- concentration at 24 h (subcutaneous adipose tissue, 240 mg single dose, adipose tissue, 24 h): 212 nM
- concentration at 10 h (subcutaneous adipose tissue, 360 mg single dose, adipose tissue): 857 nM
- concentration at 24 h (subcutaneous adipose tissue, 360 mg single dose, adipose tissue, 24 h): 307 nM
